Laboratory results published in patent US12036298B2, “Skin care composition and method for treating post-acne marks” (The Procter & Gamble Company, priority 2021, dated 2024).
Values after ≈ are worked out from the molar mass of the structure shown.

Tests used:
physchem = format: physicochemical; details: for solubility: 20 °C
Text: (§1) The compositions herein include one or more solubilizers and/or co-solvents to help solubilize the HCA. […] Without being limited by theory, it is believed that the decreased solubility of an HCA at lower pH is due to reduced ability of the HCA to undergo the acid dissociation that forms the conjugate base species observed at higher pH levels. At pH 7, p-coumaric acid exists at approximately 99.6% in its base form; whereas at pH 3, the conjugate base form is only present at approximately […]. As a result of its relatively poor solubility, HCAs can form crystals in an aqueous, low-pH skin care composition. The HCA crystals may impart an undesirable feel to the composition during use (e.g., a rough or grainy feel). HCA crystal formation may also lead to a decrease in the efficacy of the HCA and/or other ingredients in the composition, and/or create an undesirable consumer perception of the skin care composition or manufacturer (e.g., poor quality).
In order to avoid the formation of HCA crystals in the present low-pH compositions, the HCA should have a solubility greater than the intrinsic solubility limit of the composition. […] In this example the HCA would likely crystalize. […] See, Bevill, et al., Polymorphic Cocrystals of Nutraceutical Compound p-Coumaric Acid with Nicotinamide: Characterization, Relative Solid-State Stability, and Conversion to Alternate Stoichiometries, Cryst. Growth Des. 2014, 14, 3, 1438-1448; 2014.

[1] = Fraction of p-coumaric acid present as conjugate base (acid dissociation) by pH; format: physicochemical; details: pH 3
Text: as §1

| solubility (physchem; pH 3, aqueous buffer) | solubility (physchem; pH 7, aqueous buffer) | conjugate base form present [1] | intrinsic solubility (physchem; pH 3.8) | Molecule |
| --- | --- | --- | --- | --- |
| 4000 µg/mL (≈ 24.4 mM) | ~345000 µg/mL (≈ 2100 mM) | approximately 13.4% |  | O=C(O)/C=C/c1ccc(O)cc1 [p-coumaric acid] |
|  |  |  | 6800 µg/mL | hydroxycinnamic acid [HCA] |
